# Tests used:
# [1] = Cytotoxicity assay (resazurin); assay type: cell-based; conditions: human, HEK-293 cells, 24 h treatment, n = 3
# Method: The human embryonic kidney cell line (HEK-293) was used to assess the cytotoxicity of the antibiotics as described by us previously. HEK-293 cells were cultured in Dulbecco’s modified eagle’s medium (DMEM) containing 10% Fetal Bovine Serum (FBS) and incubated at 37 °C in the presence of 5% carbon dioxide. HEK-293 cells were cultured in 96-well black plates with 6000 cells per well for the first 24 h followed by treatment with a range of concentrations of antibiotics dissolved in DMSO for the next 24 h. After the second period of incubation, resazurin (40 µL of 0.15 mg/mL) was added to each well and incubated for an additional 4 h. Reduction of resazurin was measured fluorometrically with excitation wavelength at 560 nm and emission at 590 nm using BioTek™ Cytation™5 plate reader. Percentage viability of HEK cells for each range of concentrations was calculated, taking the fluorescence value of the wells treated with DMSO as a reference, using Microsoft® Excel® for Office 365 MSO. IC50 values were computed using the calculated percentage viability values through data processing in Graphpad Prism 7 for Windows, Version 7.04.
# [2] = tested on: S. aureus ATCC 700699 persisters; experiment: Persister viability assay; assay type: cell-based, Staphylococcus aureus; conditions: 32× MIC, 4 h; for activity against persisters: S. aureus ATCC 700699 persisters
# Method: (§1) The persister assay was performed following the methodology described previously. Briefly, for persister viability assays, S. aureus ATCC 700699 strain (MRSA) was grown to stationary phase in CAMHB medium by shaking at 200 rpm in a shaking incubator for 24 h at 35 °C. […] After incubation, 400 µL aliquot was washed, serially diluted in PBS, and plated in blood agar plate for viable colony count.
# Gram-positive bacteria = experiment: MIC across the tested strains; assay type: cell-based
# Method: (§2) Compounds were dissolved in dimethyl sulfoxide (DMSO) to achieve a starting concentration of 32 µg/mL as described by us previously. Compounds were further diluted two-fold across the 96-well honeycomb plate columns in cation adjusted Mueller Hinton broth (CAMHB), and bacterial culture was added. Plates were incubated for 18–20 h at 35 ℃ before determining the minimum concentrations at which wells had no visible turbidity to the naked eye. The MIC values were determined from at least a duplicate result obtained from three independent experiments using fresh bacterial cultures on different days.
# [3] = tested on: S. aureus and E. faecalis biofilms; experiment: Biofilm eradication, S. aureus and E. faecalis; assay type: cell-based
# Method: (§3) Minimum biofilm eradication concentration (MBEC) was determined using a Calgary device using the protocol reported elsewhere with some modifications. The Calgary device is a 96-well plate with a lid containing pegs to establish biofilms. Bacteria from an overnight plate culture were suspended to a 0.5 McFarland turbidity, then diluted 1:100 in a CAMHB containing 1% glucose which was inoculated in the 96 wells (150 μL in each well) and incubated at 35 °C for 24 h to establish biofilm on the pegs. The lid was then removed, washed with PBS in a fresh 96 well plate, then transferred to another 96-well plate containing 2-fold serial dilutions of the test compounds dissolved in PBS (150 μL total volume in each well). This plate was called the “challenge plate”. The challenge plate was incubated for an additional 24 h, and the lid was transferred to the next 96-well plate containing fresh CAMHB media with 1% glucose (180 μL) and further incubated for 24 h. […] All the compounds were tested in a minimum of three independent experiments.
# [4] = tested on: Bacillus subtilis ATCC 6623 (Bs); experiment: MIC, microdilution (CLSI); assay type: cell-based; conditions: ATCC6623; Bs, Bacillus subtilis ATCC 6623; n = 3; read-out: MIC
# Method: as §2
# [5] = tested on: E. faecium ATCC 700221 (Ef21); experiment: MIC, microdilution (CLSI); assay type: cell-based; conditions: Enterococcus faecium, ATCC 700221 / VRE; Ef21, vancomycin-resistant (VRE) E. faecium ATCC 700221; n = 3; read-out: MIC
# Method: as §2
# [6] = tested on: E. faecalis ATCC 29212 (Ef12); experiment: MIC, microdilution (CLSI); assay type: cell-based; conditions: Enterococcus faecalis, ATCC29212; Ef12, antibiotic susceptible E. faecalis ATCC 29212; n = 3; read-out: MIC
# Method: as §2
# [7] = tested on: S. aureus ATCC 33591 (Sa91); experiment: MIC, microdilution (CLSI); assay type: cell-based; conditions: Staphylococcus aureus, ATCC33591; Sa91, methicillin-resistant S. aureus ATCC 33591; n = 3; read-out: MIC
# Method: as §2
# [8] = tested on: S. aureus ATCC 25923 (Sa23); experiment: MIC, microdilution (CLSI); assay type: cell-based; conditions: Staphylococcus aureus, ATCC25923; Sa23, antibiotic susceptible S. aureus ATCC 25923; n = 3; read-out: MIC
# Method: as §2
# [9] = tested on: S. aureus ATCC 700699 (Sa99); experiment: MIC, microdilution (CLSI); assay type: cell-based; conditions: Staphylococcus aureus, ATCC700699; Sa99, methicillin-resistant S. aureus ATCC 700699; n = 3; read-out: MIC
# Method: as §2
# [10] = tested on: S. aureus BAA-2312 (Sa12); experiment: MIC, microdilution (CLSI); assay type: cell-based; conditions: Staphylococcus aureus, BAA2312; Sa12, methicillin-resistant S. aureus BAA-2312; n = 3; read-out: MIC
# Method: as §2
# [11] = tested on: S. epidermidis ATCC 700296 (Se); experiment: MIC, microdilution (CLSI); assay type: cell-based; conditions: Staphylococcus epidermidis, ATCC700296; Se, S. epidermidis ATCC 700296; n = 3; read-out: MIC
# Method: as §2
# [12] = tested on: E. faecalis ATCC 51299 (Ef99); experiment: MIC, microdilution (CLSI); assay type: cell-based; conditions: Enterococcus faecalis, ATCC 51299 / VRE; Ef99, vancomycin-resistant (VRE) E. faecalis ATCC 51299; n = 3; read-out: MIC
# Method: as §2
# [13] = tested on: S. aureus ATCC 33592 (Sa92); experiment: MIC, microdilution (CLSI); assay type: cell-based; conditions: Staphylococcus aureus, ATCC33592; Sa92, methicillin-resistant S. aureus ATCC 33592; n = 3; read-out: MIC
# Method: as §2
# [14] = tested on: E. faecalis biofilms (Efs12); experiment: Biofilm eradication (MBEC), Calgary Biofilm Device; assay type: cell-based
# Method: as §3
# [15] = tested on: S. aureus biofilms (Sa23); experiment: Biofilm eradication (MBEC), Calgary Biofilm Device; assay type: cell-based, Staphylococcus aureus
# Method: as §3
# [16] = tested on: MRSA persisters (S. aureus ATCC 700699); experiment: Persister Time Kill Assay; assay type: cell-based, Staphylococcus aureus; conditions: for decrease of persister cells: 2× MIC, 8 h; for persisters eradicated: within 8 h at all the 4× MIC, 8× MIC and 16× MIC concentrations
# Method: as §1
# Likewise, for persister time-kill assays, the persister cells were treated at varied concentrations and incubated with shaking. At the start and every 2 h until 8 h, 400 µL samples were washed, serially diluted, and plated on blood agar using the 6 × 6 drop plate method. Plates were incubated for 18–20 h at 35 °C, before the colonies were counted to calculate CFU/mL. All the treatments were performed in triplicates.
# S. aureus strains = experiment: MIC against S. aureus strains; assay type: cell-based, Staphylococcus aureus; conditions: against S. aureus strains
# Method: as §2
SMILES,IC50 at 24 h [1] [µg/mL],activity against persisters [2],MIC [4] [µg/mL],MIC [5] [µg/mL],MIC [6] [µg/mL],MIC [7] [µg/mL],MIC [8] [µg/mL],MIC [9] [µg/mL],MIC [10] [µg/mL],MIC [11] [µg/mL],MIC [12] [µg/mL],MIC [13] [µg/mL],MBEC [14] [µg/mL],MIC (Gram-positive bacteria; across the tested strains) [µg/mL],times more effective than vancomycin and daptomycin (S. aureus strains),also measured
"O=C(O)c1ccc(-n2cc(CNc3ccc(Oc4ccccc4)cc3)c(-c3cc(C(F)(F)F)cc(C(F)(F)F)c3)n2)cc1 [Compound 5, 4-[3-[3,5-Bis(trifluoromethyl)phenyl]-4-[(4-phenoxyanilino)methyl]pyrazol-1-yl] benzoic acid]",9.15,partial activity,2,1,2,1,1,2,2,4,1,1,>32,–,–,MIC (Gram-positive bacteria; against several bacterial strains): 1 µg/mL; biofilm eradication property [3]: did not show any appreciable biofilm eradication property; MBEC [15]: >32 µg/mL
"O=C(O)c1ccc(-n2cc(CNc3ccc(Br)cc3)c(-c3cc(C(F)(F)F)cc(C(F)(F)F)c3)n2)cc1 [Compound 11, 4-[3-[3,5-Bis(trifluoromethyl)phenyl]-4-[(4-bromoanilino)methyl]pyrazol-1-yl] benzoic acid]",7 to 8,very effective,1,1,2,1,2,2,1,2,1,1,4,–,–,reduction of the population of persisters compared to the positive controls [2]: 4 log values; decrease of persister cells [16]: 1 log value; persisters eradicated [16]: more than 3 log values
"O=C(O)c1ccc(-n2cc(CNc3ccc(Cl)c(Cl)c3)c(-c3cc(C(F)(F)F)cc(C(F)(F)F)c3)n2)cc1 [Compound 19, 4-[3-[3,5-Bis(trifluoromethyl)phenyl]-4-[(3,4-dichloroanilino)methyl]pyrazol-1-yl] benzoic acid]",–,–,1,1,1,0.5,1,2,0.5,1,1,1,–,≥ 0.5,up to 4 times,–
"O=C(O)c1ccc(-n2cc(CNc3cc(Cl)cc(Cl)c3)c(-c3cc(C(F)(F)F)cc(C(F)(F)F)c3)n2)cc1 [Compound 20, 4-[3-[3,5-Bis(trifluoromethyl)phenyl]-4-[(3,5-dichloroanilino)methyl]pyrazol-1-yl] benzoic acid]",–,–,1,1,1,0.5,1,1,1,2,1,1,–,≥ 0.5,up to 4 times,–
"O=C(O)c1ccc(-n2cc(CNc3cc(Cl)c(F)cc3F)c(-c3cc(C(F)(F)F)cc(C(F)(F)F)c3)n2)cc1 [Compound 26, 4-[3-[3,5-Bis(trifluoromethyl)phenyl]-4-[(5-chloro-2,4-difluoro-anilino)methyl]pyraz-ol-1-yl] benzoic acid]",–,–,0.25,0.25,1,2,2,1,0.25,4,2,1,–,≥ 0.25,up to 4 times,–
"O=C(O)c1ccc(-n2cc(CNc3cc(Cl)c(F)c(Cl)c3)c(-c3cc(C(F)(F)F)cc(C(F)(F)F)c3)n2)cc1 [Compound 28, 4-[3-[3,5-Bis(trifluoromethyl)phenyl]-4-[(3,5-dichloro-4-fluoro-anilino)methyl]pyraz-ol-1-yl] benzoic acid]",7 to 8,very effective,1,1,2,1,1,1,1,2,2,1,2,–,–,MBEC values [3]: ≥ 1 µg/mL
"O=C(O)c1ccc(-n2cc(CNc3ccc(Br)c(Cl)c3F)c(-c3cc(C(F)(F)F)cc(C(F)(F)F)c3)n2)cc1 [Compound 29, 4-[3-[3,5-Bis(trifluoromethyl)phenyl]-4-[(4-bromo-3-chloro-2-fluoro-anilino)methyl]pyrazol-1-yl] benzoic acid]",7 to 8,very effective,2,1,2,1,2,2,1,2,2,1,2,–,–,reduction of the population of persisters compared to the positive controls [2]: 4 log values; MBEC values [3]: ≥ 1 µg/mL; decrease of persister cells [16]: ~2 log value; persisters eradicated [16]: more than 3 log values
